Experimental data as given in patent US20190290892A1, “METHODS OF DETERMINING DOSING OF A THERAPEUTIC AGENT BASED ON MEASURED LEVELS OF A METABOLITE” (Clear Creek Bio, Inc., priority 2018, published 2019).

Assays:
[1] = Adverse events in subjects receiving brequinar intravenously once a week; type: in vivo, human; details: i.v. once a week, 209 subjects
[2] = Burris, 650 mg/m^2 brequinar (days 1, 8 and 15) with 75 mg/m^2 cisplatin (day 1); cited from earlier work
advanced lung cancer = details: Gralla, weekly rapid iv injection from 5 mg/kg (200 mg/m^2), previously treated patients with advanced lung cancer; cited from earlier work

What does the source list for `Cc1c(-c2ccc(-c3ccccc3F)cc2)nc2ccc(F)cc2c1C(=O)O` [brequinar, 6-fluoro-2-(2′-fluoro-1,1′ biphenyl-4-yl)-3-methyl-4-quinoline carboxylic acid]?
All Body Systems, No. of Patients Experiencing the AE, 5y Max Grade 1 [1]: 36; All Body Systems, No. of Patients Experiencing the AE, 5y Max Grade 2 [1]: 76; All Body Systems, No. of Patients Experiencing the AE, 5y Max Grade 3 [1]: 55; All Body Systems, No. of Patients Experiencing the AE, 5y Max Grade 4 [1]: 35; Anemia, No. of Patients [1]: 90; Anemia, No. of Patients Experiencing the AE, 5y Max Grade 1 [1]: 14; Anemia, No. of Patients Experiencing the AE, 5y Max Grade 2 [1]: 48; Anemia, No. of Patients Experiencing the AE, 5y Max Grade 3 [1]: 23; Anemia, No. of Patients Experiencing the AE, 5y Max Grade 4 [1]: 5; Anorexia, No. of Patients [1]: 15; Anorexia, No. of Patients Experiencing the AE, 5y Max Grade 1 [1]: 11; Anorexia, No. of Patients Experiencing the AE, 5y Max Grade 2 [1]: 3; Anorexia, No. of Patients Experiencing the AE, 5y Max Grade 3 [1]: 1; Anorexia, No. of Patients Experiencing the AE, 5y Max Grade 4 [1]: 0; Anorexia, Percent [1]: 7.2%; Constipation, No. of Patients [1]: 10; Constipation, No. of Patients Experiencing the AE, 5y Max Grade 1 [1]: 6; Constipation, No. of Patients Experiencing the AE, 5y Max Grade 2 [1]: 2; Constipation, No. of Patients Experiencing the AE, 5y Max Grade 3 [1]: 1; Constipation, No. of Patients Experiencing the AE, 5y Max Grade 4 [1]: 0; Constipation, Percent [1]: 4.8%; Diarrhea, No. of Patients [1]: 77; Diarrhea, No. of Patients Experiencing the AE, 5y Max Grade 1 [1]: 43; Diarrhea, No. of Patients Experiencing the AE, 5y Max Grade 2 [1]: 21; Diarrhea, No. of Patients Experiencing the AE, 5y Max Grade 3 [1]: 10; Diarrhea, No. of Patients Experiencing the AE, 5y Max Grade 4 [1]: 3; Dyspepsia, No. of Patients [1]: 7; Dyspepsia, No. of Patients Experiencing the AE, 5y Max Grade 1 [1]: 6; Dyspepsia, No. of Patients Experiencing the AE, 5y Max Grade 2 [1]: 1; Dyspepsia, No. of Patients Experiencing the AE, 5y Max Grade 3 [1]: 0; Dyspepsia, No. of Patients Experiencing the AE, 5y Max Grade 4 [1]: 0; Dyspepsia, Percent [1]: 3.3%; Fatigue, No. of Patients [1]: 33; Fatigue, No. of Patients Experiencing the AE, 5y Max Grade 1 [1]: 23; Fatigue, No. of Patients Experiencing the AE, 5y Max Grade 2 [1]: 8; Fatigue, No. of Patients Experiencing the AE, 5y Max Grade 3 [1]: 2; Fatigue, No. of Patients Experiencing the AE, 5y Max Grade 4 [1]: 0; Fever, No. of Patients [1]: 11; Fever, No. of Patients Experiencing the AE, 5y Max Grade 1 [1]: 4; Fever, No. of Patients Experiencing the AE, 5y Max Grade 2 [1]: 7; Fever, No. of Patients Experiencing the AE, 5y Max Grade 3 [1]: 0; Fever, No. of Patients Experiencing the AE, 5y Max Grade 4 [1]: 0; Fever, Percent [1]: 5.3%; Granulocytopenia, No. of Patients [1]: 37; Granulocytopenia, No. of Patients Experiencing the AE, 5y Max Grade 1 [1]: 16; Granulocytopenia, No. of Patients Experiencing the AE, 5y Max Grade 2 [1]: 17; Granulocytopenia, No. of Patients Experiencing the AE, 5y Max Grade 3 [1]: 3; Granulocytopenia, No. of Patients Experiencing the AE, 5y Max Grade 4 [1]: 5; Headache, No. of Patients [1]: 7; Headache, No. of Patients Experiencing the AE, 5y Max Grade 1 [1]: 4; Headache, No. of Patients Experiencing the AE, 5y Max Grade 2 [1]: 3; Headache, No. of Patients Experiencing the AE, 5y Max Grade 3 [1]: 0; Headache, No. of Patients Experiencing the AE, 5y Max Grade 4 [1]: 0; Headache, Percent [1]: 3.3%; Infection, No. of Patients [1]: 7; Infection, No. of Patients Experiencing the AE, 5y Max Grade 1 [1]: 4; Infection, No. of Patients Experiencing the AE, 5y Max Grade 2 [1]: 3; Infection, No. of Patients Experiencing the AE, 5y Max Grade 3 [1]: 0; Infection, No. of Patients Experiencing the AE, 5y Max Grade 4 [1]: 0; Infection, Percent [1]: 3.3%; Leukopenia, No. of Patients [1]: 69; Leukopenia, No. of Patients Experiencing the AE, 5y Max Grade 1 [1]: 26; Leukopenia, No. of Patients Experiencing the AE, 5y Max Grade 2 [1]: 31; Leukopenia, No. of Patients Experiencing the AE, 5y Max Grade 3 [1]: 10; Leukopenia, No. of Patients Experiencing the AE, 5y Max Grade 4 [1]: 2; Leukopenia, Percent [1]: 33.0%; Mucositis, No. of Patients [1]: 52; Mucositis, No. of Patients Experiencing the AE, 5y Max Grade 1 [1]: 23; Mucositis, No. of Patients Experiencing the AE, 5y Max Grade 2 [1]: 15; Mucositis, No. of Patients Experiencing the AE, 5y Max Grade 3 [1]: 11; Mucositis, No. of Patients Experiencing the AE, 5y Max Grade 4 [1]: 3; Nausea, No. of Patients [1]: 91; Nausea, No. of Patients Experiencing the AE, 5y Max Grade 1 [1]: 59; Nausea, No. of Patients Experiencing the AE, 5y Max Grade 2 [1]: 19; Nausea, No. of Patients Experiencing the AE, 5y Max Grade 3 [1]: 12; Nausea, No. of Patients Experiencing the AE, 5y Max Grade 4 [1]: 1; Pain Inject Site, No. of Patients [1]: 24; Pain Inject Site, No. of Patients Experiencing the AE, 5y Max Grade 1 [1]: 24; Pain Inject Site, No. of Patients Experiencing the AE, 5y Max Grade 2 [1]: 0; Pain Inject Site, No. of Patients Experiencing the AE, 5y Max Grade 3 [1]: 0; Pain Inject Site, No. of Patients Experiencing the AE, 5y Max Grade 4 [1]: 0; Pain, Abdominal, No. of Patients [1]: 8; Pain, Abdominal, No. of Patients Experiencing the AE, 5y Max Grade 1 [1]: 4; Pain, Abdominal, No. of Patients Experiencing the AE, 5y Max Grade 2 [1]: 3; Pain, Abdominal, No. of Patients Experiencing the AE, 5y Max Grade 3 [1]: 1; Pain, Abdominal, No. of Patients Experiencing the AE, 5y Max Grade 4 [1]: 0; Pain, Abdominal, Percent [1]: 3.8%; Rash, No. of Patients [1]: 53; Rash, No. of Patients Experiencing the AE, 5y Max Grade 1 [1]: 26; Rash, No. of Patients Experiencing the AE, 5y Max Grade 2 [1]: 15; Rash, No. of Patients Experiencing the AE, 5y Max Grade 3 [1]: 9; Rash, No. of Patients Experiencing the AE, 5y Max Grade 4 [1]: 3; Somnolence, No. of Patients [1]: 9; Somnolence, No. of Patients Experiencing the AE, 5y Max Grade 1 [1]: 7; Somnolence, No. of Patients Experiencing the AE, 5y Max Grade 2 [1]: 2; Somnolence, No. of Patients Experiencing the AE, 5y Max Grade 3 [1]: 0; Somnolence, No. of Patients Experiencing the AE, 5y Max Grade 4 [1]: 0; Somnolence, Percent [1]: 4.3%; Stomatitis, No. of Patients [1]: 60; Stomatitis, No. of Patients Experiencing the AE, 5y Max Grade 1 [1]: 32; Stomatitis, No. of Patients Experiencing the AE, 5y Max Grade 2 [1]: 20; Stomatitis, No. of Patients Experiencing the AE, 5y Max Grade 3 [1]: 7; Stomatitis, No. of Patients Experiencing the AE, 5y Max Grade 4 [1]: 1; Thrombocytopenia, No. of Patients [1]: 94; Thrombocytopenia, No. of Patients Experiencing the AE, 5y Max Grade 1 [1]: 26; Thrombocytopenia, No. of Patients Experiencing the AE, 5y Max Grade 2 [1]: 31; Thrombocytopenia, No. of Patients Experiencing the AE, 5y Max Grade 3 [1]: 16; Thrombocytopenia, No. of Patients Experiencing the AE, 5y Max Grade 4 [1]: 21; Thrombocytopenia, Percent [1]: 45.0%; Vomit, No. of Patients [1]: 73; Vomit, No. of Patients Experiencing the AE, 5y Max Grade 1 [1]: 32; Vomit, No. of Patients Experiencing the AE, 5y Max Grade 2 [1]: 24; Vomit, No. of Patients Experiencing the AE, 5y Max Grade 3 [1]: 12; Vomit, No. of Patients Experiencing the AE, 5y Max Grade 4 [1]: 5; effect of combination on individual drug pharmacokinetic parameters [2]: without significant modifications of individual drug pharmacokinetic parameters

For `NC(=O)c1[nH]nc([C@@H]2O[C@H](CO)[C@@H](O)[C@H]2O)c1O` [pyrazofurin, 5-[(2S,3R,4S,5R)-3,4-dihydroxy-5-(hydroxymethyl)oxolan-2-yl]-4-hydroxy-1H-pyrazole-3-carboxamide], which therapeutic activity (advanced lung cancer) is on record?
Its therapeutic activity is “little therapeutic value as a single agent”.
